# Experimental data: patent US20240058337A1, “Managing Side Effects in T Cell Therapy” (Innovative Cellular Therapeutics Holdings, Ltd., priority 2022, published 2024)
# Assays:
# Format in all cases: in vivo, human
# [1] = system: colorectal cancer (CRC) patients; assay: Clinical trial: response and disease control to CAR T therapy with or without dasatinib; details: patients who got dasatinib
# Method: (§1) This system was implemented in a clinical trial involving 35 colorectal cancer (CRC) patients, which were treated with mixed population of cells including GCC CAR T cells. Diarrhea, a common side effect, typically presented as early as day 7 (median=9, range 7-15) at a grade two severity or higher. The primary treatment for this was immediate administration of infliximab and, in some cases, dasatinib.
# (§2) For the 1×10^6 CAR T/kg of body weight dose, half of the patients managed their diarrhea through supportive care and antidiarrheal medication. Around 85% experienced grade 2 or higher diarrhea, 67% of whom responded well to a single dose of infliximab. At a higher dose of 2×10^6 CAR T/kg bodyweight, only 13% of patients could control diarrhea with supportive care or antidiarrheal drugs, and all patients experienced a grade 2 or higher diarrhea, but only 43% responded to a single infliximab dose. […] In such cases, dasatinib was administered at 100 mg/day for over ten consecutive days until the patient's side effects reduced to grade 1 or less, and the patient was ready for discharge.
# [2] = system: Cytokine Release Syndrome (CRS); assay: Cytokine Release Syndrome (CRS) management after CAR T therapy; details: grade 2 fever not resolved within 6 hours with conventional antipyretic methods
# Method: This fever typically occurs earliest on day 3 (median is day 5, range is day 3-12). Tocilizumab administration results in remission in 90% of cases. However, if 24 hours after administering tocilizumab, the patient still presents with a grade 2 or higher fever or a refractory fever, treatment with corticosteroids should be initiated following ASCO guidelines. The remaining 10% of patients typically responds well to corticosteroids. If there is no improvement within 24 hours after this step, the administration of dasatinib at 100 mg once daily for 2-3 days can be administered.
# [3] = system: colorectal cancer (CRC) patients; assay: Clinical trial of mixed population of cells including GCC CAR T cells: diarrhea side effect and its management
# Method: as §1, §2
compound,measurement,setting,value
Cc1nc(Nc2ncc(C(=O)Nc3c(C)cccc3Cl)s2)cc(N2CCN(CCO)CC2)n1 [dasatinib],Disease Control Rate,[1]; 1 million cells/kg,33.3%
same,Response Rate to CAR T Therapy,[1]; 1 million cells/kg,0%
same,Disease Control Rate,[1]; 2 million+ cells/kg,75%
same,Response Rate to CAR T Therapy,[1]; 2 million+ cells/kg,50%
Tocilizumab,"remission of grade 2 fever (CRS) after tocilizumab administration, cases",[2],90%
infliximab,patients with grade 2 or higher diarrhea who responded well to a single dose of infliximab,[3]; 1×10^6 CAR T/kg of body weight,67%
same,patients with grade 2 or higher diarrhea who responded to a single infliximab dose,[3]; 2×10^6 CAR T/kg bodyweight,43%
same,patients who benefitted from a single dose of infliximab,[3]; 3×10^6 CAR T/kg body weight,fewer patients benefitted
